Laboratory results as given in ChEMBL document CHEMBL1130021 (J Med Chem, 1997).
Structures can show the parent of a compound that is named as a salt.

test system: MCF7; experiment: Inhibition of estrogen-induced proliferation in human MCF-7 breast cancer cells; type: functional, cell-based

Compound | IC50
O=C(c1ccc(OCCN2CCCCC2)cc1)c1c(-c2ccc(O)cc2)sc2cc(O)ccc12 [RALOXIFENE HYDROCHLORIDE] | 0.4 nM
C[C@]12CC[C@@H]3c4ccc(O)cc4C[C@@H](CCCCCCCCC[S+]([O-])CCCC(F)(F)C(F)(F)F)[C@H]3[C@@H]1CC[C@@H]2O (stereo partly drawn) [FULVESTRANT] | 0.49 nM
CC/C(=C(\c1ccccc1)c1ccc(OCCN(C)C)cc1)c1ccccc1 [TAMOXIFEN] | 481 nM

Now those with a lower IC50, led by results:

IC50 | Compound
0.28 nM | Oc1ccc(-c2sc3cc(O)ccc3c2Sc2ccc(OCCN3CCCCC3)cc2)cc1
0.19 nM | Oc1ccc(-c2sc3cc(O)ccc3c2Cc2ccc(OCCN3CCCCC3)cc2)cc1
0.1 nM | Oc1ccc(-c2sc3cc(O)ccc3c2Nc2ccc(OCCN3CCCCC3)cc2)cc1
0.05 nM | Cl.Oc1ccc(-c2sc3cc(O)ccc3c2Oc2ccc(OCCN3CCCCC3)cc2)cc1

test system: Rattus norvegicus; experiment: Percent reduction in total serum Cholesterol level at 1.0 mg/kg oral dose; type: functional

Compound | Reduction
Cl.Oc1ccc(-c2sc3cc(O)ccc3c2Oc2ccc(OCCN3CCCCC3)cc2)cc1 | 45%
